# Legend:
# Format in all cases: in vivo
# IL-6 = experiment: Serum IL-6 by ELISA in mice subjected to HS/R; details: CO 250 ppm throughout HS/R, 4 hours after resuscitation, P<0.05 vs untreated HS/R mice
# Description: (§1) Hemorrhagic shock was induced in mice as follows: C57/BL6 or il-10^−/− mice (Jackson Laboratories) (n=3/group) weighing 20-26 grams were anesthetized with pentobarbital (70 mg/kg; IP). The right and left femoral arteries were cannulated. The left arterial catheter was connected to a monitor to follow MAP and heart rate. Over 10 minutes, blood was withdrawn via the right catheter while monitoring blood pressure to achieve an MAP of 25 mmHg. Blood was withdrawn and returned to the animal as necessary in order to maintain a MAP of 25 mmHg. Sham animals were cannulated but not subjected to hemorrhage. At the end of the shock period (90-150 minutes), mice were resuscitated with the shed blood plus two times that volume with Ringer's lactate solution over 15-30 minutes. Animals were sacrificed 4-24 hours following the initiation of resuscitation and blood, liver, lungs, and intestines were collected.
# (§2) Serum levels of the cytokines interleukin-6 (IL-6), tumor necrosis factor alpha (TNF-α), and interleukin-10 (IL-10) were determined by enzyme-linked immunosorbent assay (ELISA) (R&D systems) according to the manufacturer's instructions. These cytokines were measured because they mediate inflammation. Levels of pro-inflammatory cytokines can increase following hemorrhagic shock and can exacerbate hemodynamics and contribute to the development of multiple organ dysfunction. […]
# mice subjected to HS/R [1] = experiment: Intestinal histology (H&E) in mice subjected to HS/R; details: CO 250 ppm throughout HS/R, 4 hours after resuscitation
# Description: as §1
# Harvested intestines were flushed and fixed in 2% paraformaldehyde for 2 hours and then 30% sucrose for 12 hours. Specimens were frozen slowly in cold 2-methylbutane. Sections were stained using hematoxylin and eosin (H&E) and architectural changes were evaluated.
# (§3) Mice were exposed to CO at a concentration of 250 ppm. Briefly, 1% CO in air was mixed with air (21% oxygen) in a stainless steel mixing cylinder and then directed into a 3.70 ft^3 glass exposure chamber at a flow rate of 12 L/min. […]
# IL-10 = experiment: Serum IL-10 by ELISA in mice subjected to HS/R; details: CO 250 ppm throughout HS/R, 4 hours after resuscitation, P<0.05 vs sham and shock controls
# Description: as §1, §2
# mice subjected to HS/R [2] = experiment: Serum ALT (liver injury) in mice subjected to HS/R
# Description: as §1
# (§4) A colorimetric analysis for serum alanine aminotransferase (ALT) level was used to determine whether liver injury occurred in mice subjected to HS/R. The alanine aminotransferase test is one of a group of tests known as liver function tests and is used to monitor damage to the liver. Alanine aminotransferase is an enzyme that is normally expressed in the liver and under normal circumstances is present in serum samples at very low levels. Increased levels of ALT in the serum are indicative of liver cell death and/or liver failure.
# as §3, with “L/min. A CO analyzer (Interscan, Chatsworth, Calif.) was used to measure CO levels continuously in the chamber. CO concentrations were maintained at 250 ppm at all times. Mice were placed in the exposure chamber as required.” for “L/min.”
# [3] = system: il-10−/− mice subjected to HS/R; experiment: Serum ALT in il-10−/− mice subjected to HS/R
# Description: as §1
# as §4, with “Increased levels of ALT in the serum are indicative of liver cell death and/or liver failure.” left out
# [4] = system: hemorrhage-induced liver hypoxia; experiment: EF5 hypoxic imaging of liver in hemorrhaged mice
# Description: as §1
# The technique of observing uptake of EF5 (2-[2-nitro-1H-imidazol-1-yl]-N-(2,2,3,3,3-pentafluoropropyl) acetamide) to monitor tissue hypoxia is well established and reliable. […] Intensity of staining was determined by measuring mean fluorescence in 10 different sections per animal (n=5 per group; MetaMorph®). […] These forms of the compound bind irreversibly to proteins within the cell, which can then be detected by immunohistochemistry. […]
# [5] = system: il-10−/− mice subjected to HS/R; experiment: Lung MPO activity in il-10−/− mice subjected to HS/R
# mice subjected to HS/R [6] = experiment: Lung myeloperoxidase (MPO) activity in mice subjected to HS/R
# [7] = CO 250 ppm throughout HS/R, 4 hours after resuscitation, P<0.05
smiles,measurement,setting,value
"[C-]#[O+] [CO, carbon monoxide]",HS/R-induced increase in serum IL-6,IL-6,significantly abrogated
same,intestinal histology of CO-treated shocked mice,mice subjected to HS/R [1],more closely resembled CO- and air-treated sham controls
same,increase in serum IL-10 levels in shocked mice,IL-10,5.4 fold
same,serum ALT compared to untreated mice,mice subjected to HS/R [2]; [7],significantly lowered
same,serum ALT compared to untreated shocked mice,"mice subjected to HS/R [2]; CO during resuscitation only, 24 hours after resuscitation",significantly lower
same,protection against liver injury,"mice subjected to HS/R [2]; CO initiated during resuscitation only, 4-hour time point following resuscitation (data not shown)",no demonstrable protection
same,protection against HS/R-induced liver injury (serum ALT),[3],did not appear to protect
same,liver hypoxia (EF5) compared to air-treated sham controls,"[4]; CO-treated sham controls, 250 ppm",no increase
same,increase in liver EF5 staining compared to air-treated sham controls,"[4]; shocked mice, CO 250 ppm initiated at onset of shock, 90 minutes after initiation of shock, P<0.05 vs air-treated shocked mice",3.7±0.7 fold
same,protection against HS/R-induced lung injury (lung MPO activity),[5],did not appear to protect
same,lung MPO activity compared to untreated mice,mice subjected to HS/R [6]; [7],significantly lowered
same,lung MPO activity,"mice subjected to HS/R [6]; CO initiated during resuscitation only, after 4 hours",significantly improved

# From patent US20040228930A1, “Treatment for hemorrhagic shock” (priority 2002, published 2004)
